Test results: PubChem BioAssay (NCI)
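Dose response: 5 concentrations. Exposure: 48 h. Format: 96-well plates. Endpoint: linear interpolation; highest concentration if not reached. TGI is the concentration that stops growth completely.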

Columns and labels:
Assay in all cases: NCI tumour cell line growth inhibition, 48 h
CCRF-CEM leukemia = system: CCRF-CEM leukemia
RXF 393 renal = system: RXF 393 renal
NCI-H23 lung = system: NCI-H23 lung
A549 NSCLC = system: A549 NSCLC
UO-31 renal = system: UO-31 renal
PC-3 prostate = system: PC-3 prostate
HS 578T breast = system: HS 578T breast
OVCAR-4 ovarian = system: OVCAR-4 ovarian
MCF7 breast = system: MCF7 breast
NCI/ADR-RES ovarian = system: NCI/ADR-RES ovarian

Row | Compound | TGI (CCRF-CEM leukemia) [µM] | TGI (RXF 393 renal) [µM] | TGI (NCI-H23 lung) [µM] | TGI (A549 NSCLC) [µM] | TGI (UO-31 renal) [µM] | TGI (PC-3 prostate) [µM] | TGI (HS 578T breast) [µM] | TGI (OVCAR-4 ovarian) [µM] | TGI (MCF7 breast) [µM] | TGI (NCI/ADR-RES ovarian) [µM]
1 | CC(C)(CN1CCCCC1)C(=O)CC(SCCS(=O)(=O)O)c1ccc(Cl)c(Cl)c1 (stereo not given) | 4.69 | 11.2 | 15.8 | 21 | 16.4 | 17 | 7 | 9.38 | 15.3 | 22.9
2 | O=C(n1c(=O)n(-c2ccc([N+](=O)[O-])cc2)c(=O)n1C(=O)C(Cl)(Cl)Cl)C(Cl)(Cl)Cl | > 100 | > 100 | > 100 | > 100 | > 100 | > 100 | > 100 | > 100 | > 100 | > 100
3 | Oc1cc(Br)cc2cc(Br)cnc12 | 6.27 | 10.9 | 46.1 | > 100 | 29.4 | > 100 | 63.8 | 9.59 | > 100 | > 100
4 | C=C1C(=O)O[C@H]2[C@@H](O)[C@H](C)CCC/C(C)=C/CC[C@@]3(C)O[C@@H]3C[C@@H]12 | 11.7 | 16.4 | 21.8 | > 60.9 | 18.2 | > 57.6 | > 100 | 19.8 | 36.4 | 37.9
5 | CCCS(=O)OC1C(C2COC(C)(C)O2)OC2OC(C)(C)OC21 (stereo not given) | 21.5 | 25.5 | 23.4 | 49.6 | 28.3 | 24 | > 100 | 34.7 | 27.3 | 46.1
6 | C1CN(C23OC4(N5CCOCC5)C5C6CC(C7C6C4C72)C53)CCO1 (stereo not given) | > 100 | > 100 | > 100 | > 100 | > 100 | > 100 | > 100 | > 100 | > 100 | > 100
7 | CCSc1nn(-c2c3ccccc3nc3ccccc23)c(=S)s1 | > 100 | > 100 | > 100 | > 100 | > 100 | > 100 | > 100 | > 100 | > 100 | > 100
8 | C[C@@H](CC(O)C(O)C(C)(C)O)C1CCC23CC12CCC1[C@@]2(C)CCC(=O)C(C)(C)C2CC(OC2OC(CO)C(O)C(O)C2O)[C@]13C (stereo not given in full) | > 10 | > 10 | > 10 | > 10 | > 10 | > 10 | > 10 | > 10 | > 10 | > 10
9 | Clc1cccc(Cl)c1C1ON=C(c2ccccc2)N1C12CC3CC(CC(C3)C1)C2 (stereo not given) | 56.5 | > 100 | > 100 | > 100 | > 100 | 29.9 | 87.2 | > 100 | > 100 | 84.4
10 | Nc1ncc(Cc2nn3c(COc4ccc(Cl)cc4)nnc3s2)s1 | > 100 | > 100 | > 100 | > 100 | > 100 | > 100 | > 100 | > 100 | > 100 | > 100
11 | OCC1=C[C@@](COCc2ccccc2)(OCc2ccccc2)[C@@H](OCc2ccccc2)[C@@H]1OCc1ccccc1 | 11 | 18.4 | 38.8 | 67.3 | 67.1 | 55.5 | 87.6 | 73.3 | 23.8 | 16.9
12 | NC(=O)CN1CCN(c2nc(N3CCCC3)c3nc(Cl)c(NCc4ccccc4)nc3n2)CC1 | > 50 | 16.2 | 35.6 | 35.2 | 21.9 | 24.9 | 24.2 | 48.2 | 16.6 | 40.9
13 | c1csc(-c2csc(-c3cccs3)c2)c1 | > 100 | 74 | 63.1 | > 100 | > 100 | 82.7 | > 100 | > 100 | 75.2 | > 100
14 | O=[N+]([O-])c1ccc(-c2nc3ccccc3o2)cc1 | > 100 | > 100 | > 100 | > 100 | > 100 | > 100 | > 100 | > 100 | > 100 | > 100
15 | CN(CCc1ccccn1)C(=S)N/N=C/c1ccccn1 | < 0.01 | 2.98 | 13.8 | 3.75 | 17.8 | > 58.1 | > 87.2 | 21.4 | > 100 | 18
16 | NC(Cc1ccccc1)C(=O)O (stereo not given) | > 100 | > 100 | > 100 | > 100 | > 100 | > 100 | > 100 | > 100 | > 100 | > 100
